Experimental data: the supplement of paper PMC8882468

What was measured:
Assay in all cases: CTG-3D luminescence at 96 h relative to day-0 seeding control (ratio to day 0); higher = more growth / less cytotoxicity; PDxO 3D drug screen (set 2), 96 h, CTG-3D normalised to day-0 seeding control.
HCI-002 = system: HCI-002 (organoid from a triple-negative breast cancer xenograft)
HCI-015 = system: HCI-015 (organoid from a triple-negative breast cancer xenograft)
HCI-003.E2 = system: HCI-003.E2 (organoid from an ER-positive breast cancer xenograft)
HCI-027 = system: HCI-027 (organoid from a triple-negative breast cancer xenograft)
HCI-011.E2 = system: HCI-011.E2 (organoid from an ER-positive breast cancer xenograft)
HCI-012 = system: HCI-012 (organoid from a breast cancer xenograft)

CCOc1ccn(-c2ccc(F)cc2)c(=O)c1C(=O)Nc1ccc(Oc2ccnc(N)c2Cl)c(F)c1 [ASLAN002]
CTG-3D luminescence at 96 h
Conditions	12.5 pM	0.00025 µM	0.005 µM	0.1 µM	1 µM	10 µM	100 µM	625 fM
HCI-002, days in culture: 127	2.57	3.09	2.93	3.28	2.8	2.96	1.67	2.9
HCI-002, days in culture: 155	4.58	5.63	6.16	6.6	5.32	3.84	1.94	4.85
HCI-002, days in culture: 168	3.23	3.24	4.54	3.38	4.12	2.92	0.58	3.92
HCI-011.E2, days in culture: 74	2.83	2.42	2.58	2.8	2.58	2.52	1.66	2.28
HCI-012, days in culture: 214	1.99	2.84	1.41	1.72	1.55	2.81	0.653	2.47
HCI-012, days in culture: 243	1.95	2.84	1.9	2.45	2.19	3.71	1.7	2.43
HCI-012, days in culture: 256	1.93	1.9	1.8	2.77	1.71	1.78	1.29	2.4
HCI-012, days in culture: 284	1.86	2.58	1.82	2.49	2.18	2.98	1.4	2.81
HCI-015, days in culture: 333	1.68	1.64	0.866	1.08	0.841	0.711	0.501	1.57
HCI-015, days in culture: 355	1.87	3.41	1.5	1.76	1.71	2.18	0.883	2.05
HCI-015, days in culture: 369	2.27	1.62	2.12	1.97	2.23	1.38	1.18	1.94
HCI-027, days in culture: 145	1.36	2.38	1.99	2.27	1.53	1.16	0.692	1.71
HCI-027, days in culture: 158	2.07	1.82	2.16	2.7	1.65	2.11	1.35	4.78
HCI-027, days in culture: 164	1.59	1.98	3.29	1.48	1.84	1.29	0.787	1.91
HCI-027, days in culture: 176	3.7	2.85	1.77	1.65	2.11	1.09	0.699	2.39
HCI-027, days in culture: 186	2	1.38	1.53	2.45	0.755	0.892	0.737	2

CTG-3D luminescence at 96 h
Conditions	12.5 pM	0.00025 µM	0.005 µM	0.1 µM	1 µM	10 µM	100 µM	625 fM
HCI-003.E2	2.68	2.58	2.76	2.78	2.47	1.97	1.09	2.78
HCI-011.E2	1.61	1.78	1.28	1.76	1.41	2.11	1.39	2.23

CC(=O)O[C@@]12CO[C@@H]1C[C@H](O)[C@@]1(C)C(=O)[C@H](O)C3=C(C)[C@@H](OC(=O)[C@H](O)[C@@H](NC(=O)OC(C)(C)C)c4ccccc4)C[C@@](O)([C@@H](OC(=O)c4ccccc4)[C@H]21)C3(C)C [docetaxel]
CTG-3D luminescence at 96 h
Conditions	12.5 pM	0.00025 µM	0.005 µM	0.1 µM	1 µM	10 µM	100 µM	625 fM
HCI-002, days in culture: 127	0.447	0.957	0.452	0.428	0.356	0.422	0.298	0.543
HCI-002, days in culture: 155	1.9	0.578	0.357	0.536	0.394	0.397	0.378	2.27
HCI-002, days in culture: 168	3.45	3.13	0.43	0.281	0.324	0.319	0.115	4.39
HCI-011.E2, days in culture: 74	2.53	2.12	1.78	1.48	1.09	0.702	0.133	2.19
HCI-012, days in culture: 214	1.03	0.8	0.461	0.578	0.404	0.777	0.105	0.817
HCI-012, days in culture: 243	1.3	1.44	0.758	0.52	0.65	0.926	0.441	1.69
HCI-012, days in culture: 256	2.14	2.22	1.58	0.695	0.649	0.506	0.405	2.16
HCI-012, days in culture: 284	2.14	3.21	1.16	0.569	0.537	0.49	0.0331	4.21
HCI-015, days in culture: 333	1.1	0.869	0.428	0.469	0.526	0.304	0.0462	0.76
HCI-015, days in culture: 355	1.2	0.928	0.736	0.737	0.975	0.684	0.105	0.757
HCI-015, days in culture: 369	1.06	0.83	0.967	0.721	0.553	0.702	0.176	1.69
HCI-027, days in culture: 145	1.01	0.93	0.832	0.862	0.922	0.849	0.15	1.06
HCI-027, days in culture: 158	2.07	2.12	1.05	0.461	1.19	2.61	0.153	3.28
HCI-027, days in culture: 164	2.42	1.32	0.405	0.525	0.555	0.505	0.117	1.04
HCI-027, days in culture: 176	3.89	2.21	0.338	0.629	0.457	0.475	0.0832	2.73
HCI-027, days in culture: 186	1.45	1.25	0.855	0.693	0.469	0.451	0.0466	2.08

CTG-3D luminescence at 96 h
Conditions	12.5 pM	0.00025 µM	0.005 µM	0.1 µM	1 µM	10 µM	100 µM	625 fM
HCI-003.E2	0.748	0.702	0.684	0.627	0.599	0.261	0.0093	0.993
HCI-011.E2	1.19	1.26	1.02	1.32	1.05	0.933	0.118	1.35
